molecular target: Prothrombin (Homo sapiens) (UniProt P00734); test: Binding affinity for human Prothrombin as apparent association constant (Kass)

K ass | SMILES
6.7e+06 l M-1 | c1ccc2c(Cc3ccc(CCCN4CCCC4)cc3)c(-c3ccc(OCCN4CCCC4)cc3)sc2c1
4.84e+06 l M-1 | C(#Cc1ccc(Cc2c(-c3ccc(OCCN4CCCC4)cc3)sc3ccccc23)cc1)CN1CCCC1
1.23e+07 l M-1 | CCC(CN1CCCC1)Oc1ccc(Cc2c(-c3ccc(OCCN4CCCC4)cc3)sc3ccccc23)cc1 (configuration not stated)
2.81e+07 l M-1 | CCC(COc1ccc(Cc2c(-c3ccc(OCCN4CCCC4)cc3)sc3ccccc23)cc1)N1CCCC1 (configuration not stated)
1.32e+07 l M-1 | C(=C\c1ccc(Cc2c(-c3ccc(OCCN4CCCC4)cc3)sc3ccccc23)cc1)/CN1CCCC1 (stereo in doubt; trans)
4.69e+06 l M-1 | CC(C)(COc1ccc(Cc2c(-c3ccc(OCCN4CCCC4)cc3)sc3ccccc23)cc1)N1CCCC1
9.8e+06 l M-1 | C(=C\c1ccc(Cc2c(-c3ccc(OCCN4CCCC4)cc3)sc3ccccc23)cc1)/CN1CCCC1 (stereo in doubt; cis)
2.74e+07 l M-1 | c1ccc2c(Cc3ccc(O[C@@H]4CCC[C@H]4N4CCCC4)cc3)c(-c3ccc(OCCN4CCCC4)cc3)sc2c1
4.17e+06 l M-1 | C[C@H](COc1ccc(Cc2c(-c3ccc(OCCN4CCCC4)cc3)sc3ccccc23)cc1)N1CCCC1
7.34e+06 l M-1 | CC(COc1ccc(Cc2c(-c3ccc(OCCN4CCCC4)cc3)sc3ccccc23)cc1)N1CCCC1 (configuration not stated)
2.4e+07 l M-1 | c1ccc2c(Cc3ccc(O[C@@H]4CCCC[C@H]4N4CCCC4)cc3)c(-c3ccc(OCCN4CCCC4)cc3)sc2c1
9.07e+06 l M-1 | C[C@@H](COc1ccc(Cc2c(-c3ccc(OCCN4CCCC4)cc3)sc3ccccc23)cc1)N1CCCC1
